In patent US20190070124A1, “COMPOSITIONS OF CB2 RECEPTOR SELECTIVE AGONISTS FOR TREATMENT OF MENTAL DISORDERS” (priority 2016, published 2019):
Entries after “also recorded” stand apart in the source; their conditions may differ.

What was measured:
[1] = tested on: DOI-induced psychotic-like behaviour; format: in vivo, mice
[2] = molecular target: cannabinoid receptor CB2 (Homo sapiens, UniProt P34972); conditions: cited from earlier work
[3] = tested on: murine model of schizophrenia; experiment: Open-field test (ambulation, rearing, grooming) in the PCP mouse model
Method: Mice were assessed for hyperactivity behavior on postnatal day 16 (FIG. 2). Mice were placed in the center of a transparent glass cube cage 30×40 X31 cm divided into squares of 7.5×7.5 cm. The number of squares and rearing activity were counted for 8 min.
Mice were assessed for hyperactivity behavior on postnatal day 64-66. Mice were placed in the center of a transparent glass cube cage 30×40 X31 cm divided into squares of 7.5×7.5 cm. The number of squares and rearing activity were counted for 8 min.

[4] = molecular target: CB2 receptor (Homo sapiens, UniProt P34972); conditions: Chicca A. et al 2014; cited from earlier work
CB2 receptor, sequence (P34972 whole entry): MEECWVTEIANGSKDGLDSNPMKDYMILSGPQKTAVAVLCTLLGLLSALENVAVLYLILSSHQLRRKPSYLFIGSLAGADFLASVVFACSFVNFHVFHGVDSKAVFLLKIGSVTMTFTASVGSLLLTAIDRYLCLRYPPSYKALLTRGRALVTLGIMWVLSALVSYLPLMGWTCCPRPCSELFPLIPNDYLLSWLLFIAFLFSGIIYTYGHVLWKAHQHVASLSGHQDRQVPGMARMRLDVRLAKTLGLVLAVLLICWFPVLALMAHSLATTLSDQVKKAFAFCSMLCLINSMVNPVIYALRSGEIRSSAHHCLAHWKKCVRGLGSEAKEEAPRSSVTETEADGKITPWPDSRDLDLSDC

[5] = Skold et al. 2006; cited from earlier work
[6] = tested on: murine model of schizophrenia; experiment: Prepulse inhibition (PPI) of the startle reflex in the PCP mouse model; format: in vivo, mice; conditions: age 7-8 weeks
Method: In this experimental model, a weak stimulus (74-90 dB tone) inhibited the subsequent response to a strong stimulus (120 dB tone). Reduced prepulse inhibition of the startle reflex (PPI) was taken as an index of the positive symptoms of schizophrenia (Josselyn and Vaccarino, 1998).
PPI was assessed similarly to the method described by Varty et al. In the employed model, mice were placed in a startle chamber and allowed to acclimate for 5 min. A loudspeaker produced a 65 dB background white noise or the various acoustic pre-pulse stimuli (dB): 74, 78, 82, 86, and 90 (20 ms). A 120 dB (40 ms) stimulus was given first to induce a response to startle. The response of the mouse was transduced and stored by a computer. Each test session lasted for 11 min and consisted of 5 presentations of each of the trial types presented in random order and separated by 15 second intervals. The amount of prepulse inhibition was calculated as % PPI=[1−(startle response for prepulse+pulse)/(startle response for pulse alone)]×100.
The % PPI indicates of level of disruption of the sensorimotor gating system in schizophrenia but also serves as an indicator of memory function. The % PPI after administration of PCP and treatment of BCP in the PPI test also serve as an index of memory function, further supporting the function of the sensorimotor system.

[7] = Hanus et al 1999, cited from earlier work
[8] = Body weight in the neonatal PCP mouse model of schizophrenia; conditions: PCP 5 mg/kg injected postnatally
[9] = tested on: murine model of schizophrenia; experiment: Elevated Plus Maze test in the PCP mouse model; format: in vivo, mice; conditions: age 13 weeks; PCP 5 mg/kg injected postnatally
Method: Anxiety as measured by the paucity of time spent on the two, anxiety-provoking, open arms (as opposed to the two enclosed arms) of an “Elevated Plus Maze” was used as a parameter of negative symptoms of schizophrenia (Josselyn and Vaccarino, 1998). The plus maze was elevated 50 cm above the table top. Behavior of each mouse was recorded for 5 min by a video camera and scored using the “EthoVision” software (Noldus Information Technology, Wageningen, The Netherlands), measuring the number of entries as well as the amount of time spent in each arm, open or closed. Increased time spent in the closed arms indicated increased anxiety. Increased time spent in the opened arms indicated anxiolytic behavior (reduced stress).

[10] = tested on: murine model of schizophrenia; experiment: PhenoTyper cage behaviour in the PCP mouse model; format: in vivo, mice; conditions: PCP 5 mg/kg injected postnatally
[11] = molecular target: CYP2D6 (Homo sapiens, UniProt P10635); experiment: CYP450 enzymatic metabolism in human liver microsomes; conditions: human liver microsomes 0.1 mg/mL, 20 min, 37 C
CYP2D6, sequence (P10635 whole entry): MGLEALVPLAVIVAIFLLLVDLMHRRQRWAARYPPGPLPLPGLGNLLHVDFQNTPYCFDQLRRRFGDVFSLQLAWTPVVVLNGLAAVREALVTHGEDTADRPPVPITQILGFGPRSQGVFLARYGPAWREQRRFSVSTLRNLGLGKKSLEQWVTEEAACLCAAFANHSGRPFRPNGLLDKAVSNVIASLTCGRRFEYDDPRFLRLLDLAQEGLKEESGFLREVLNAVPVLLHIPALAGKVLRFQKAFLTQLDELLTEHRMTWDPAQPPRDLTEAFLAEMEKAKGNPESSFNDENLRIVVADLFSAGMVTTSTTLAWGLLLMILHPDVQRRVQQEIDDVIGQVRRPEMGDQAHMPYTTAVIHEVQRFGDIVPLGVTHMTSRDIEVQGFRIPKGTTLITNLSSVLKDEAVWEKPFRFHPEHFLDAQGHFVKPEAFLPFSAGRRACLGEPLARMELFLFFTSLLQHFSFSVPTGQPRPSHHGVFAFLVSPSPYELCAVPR
Method: CYP450 dependent activities were determined using a known substrate. […] A known inhibitor, such as quinidine, tested at a single concentration 3.00 μM was included as positive control. Incubation mixture containing human liver microsomes (0.1 mg/mL), substrate (5 μM) and standard inhibitor or test compound were warmed at 37 C for 10 minutes. Reactions were initiated by addition of the NADPH (1 mM) and the mixture was incubated for 20 minutes at 37° C. water bath. The organic solvent in the reaction mixture was DMSO. After incubation, ice cold acetonitrile was added to terminate the reaction. Generation of metabolite from the substrate reactions was determined by LC-MS/MS and assessed based on peak area ratios of analyte/IS. Mean was used to calculate the extent of inhibition (expressed as % of control activity).

cannabinoid receptor CB2, sequence (P34972 whole entry): as the sequence (P34972 whole entry) above

Q: Which “grooming response, DOI vs control” value ([1]; DOI injected intraperitoneally to mice, hydrochloride) does the source give for COc1cc(CC(C)N)c(OC)cc1I.Cl (single isomer, unassigned; (-)) [DOI, (−)-1-(2,5-Dimethoxy-4-iodophenyl)-2-aminopropane hydrochloride, reference compound] here?
A: Its value is “significantly increased the grooming response”.

Q: With COc1ccc(C(=O)c2c(C)n(CCN3CCOCC3)c3cc(I)ccc23)cc1 [AM630, 6-Iodopravadoline, reference compound] as the compound, how does the Ki [2] read?
A: The Ki was 32.1 nM.

Q: And the “open-field ambulation and rearing, reversal of the BCP effect” value ([3]; PND 17, male mice, AM630 10 mg/kg co-injected with BCP 10 mg/kg 1 h after PCP)?
A: The value was “reversed the effects of BCP on ambulation and rearing behaviors; also recorded: not significantly different from these of PCP-treated mice; also recorded: reversed the effect of BCP on PCP-induced inhibition of ambulation and rearing”.

Q: What does the source list for C=C1CC[C@H]2O[C@]2(C)CC[C@@H]2[C@@H]1CC2(C)C [BCP oxide, Caryophyllene oxide]?
A: CB2 receptor binding [4]: inactivity; allergenicity [5]: found to be an allergen

Q: Which “time to inhibition of DOI-induced psychotic-like behaviour” value ([1]; HU-308 i.p. before DOI) does the source give for CCCCCCC(C)(C)c1cc(OC)c([C@@H]2C=C(CO)[C@@H]3C[C@H]2C3(C)C)c(OC)c1 [HU-308, [(1R,2R,5R)-2-[2,6-dimethoxy-4-(2-methyloctan-2-yl)phenyl]-7,7-dimethyl-4-bicyclo[3.1.1]hept-3-enyl]methanol] here?
A: The value was “already after about one hour”.

Q: What about the DOI-induced grooming response ([1]; HU-308 injected intraperitoneally one to two hours before DOI) of the same compound?
A: The DOI-induced grooming response was “reverses the effects of the psychedelic drug DOI on behavioral symptoms in a murine model; also recorded: significantly reversed the effect of DOI on grooming response”.

Q: What about the “% PPI” value ([6]; HU-308 5 mg/kg injected 1 h after PCP postnatally (Cremophor EL:ethanol:saline), 5 mg/kg) of the same compound?
A: The value was “reversed the effect of PCP on the % PPI; also recorded: reversed the effect of PCP in the PPI test”.

Q: What about the “body weight of adult mice” value [7] of the same compound?
A: The value was “does not modulate body weight of adult mice”.

Q: What about the psychoactivity in vivo [7] of the same compound?
A: The psychoactivity in vivo was “non-psychoactive agent in vivo”.

Q: And the open field assay ([7]; similar age of mice (about PND 63))?
A: The open field assay was “no effects of HU-308 in the open field assay”.

Q: What does the source list for c1ccc(C2(N3CCCCC3)CCCCC2)cc1 [PCP, Phencyclidine, reference compound]?
A: body weight, PCP vs vehicle ([8]; weight PND 3-17): significantly reduce the body weight; also recorded: induced a significant reduction in body weight; also recorded: difference between vehicle- and PCP-treated groups in body weight was still significant; also recorded: significantly reduced body weight in male and female mice; body weight, PCP vs vehicle ([8]; PND 63): no significant difference in the body weight between vehicle-treated mice and PCP-treated mice; open-field ambulation and rearing, PCP vs vehicle ([3]; PND 16-17, PCP 5 mg/kg injected postnatally): significantly inhibited both ambulation and rearing behaviors; open-field locomotor activity, males, PCP vs vehicle ([3]; PND 35-37, PCP 5 mg/kg injected postnatally): significantly increased the locomotor activity compared with vehicle treatment; time spent in distal end of the opened arm, females, PCP vs vehicle [9]: reduced the time spent in the distal end of the opened arm; time spent in distal end of the opened arm, males, PCP vs vehicle [9]: increased the time spent in the distal end of the opened arm; frequency of entries to the Hidden Zone, males, PCP vs vehicle ([10]; PND 91): appeared to reduce the frequency of entries to the Hidden Zone in males; frequency of entries to the wheel, PCP vs vehicle ([10]; PND 91): reduced the frequency of entries to the wheel; time spent at the Hidden Zone, PCP vs vehicle ([10]; PND 91): increased the time spend at the Hidden Zone; frequency of entries to the Hidden Zone, PCP vs vehicle ([10]; PND 105): increased the frequency of entries to the Hidden Zone; % prepulse inhibition, PCP vs vehicle ([6]; PCP 5 mg/kg injected postnatally): reduced the percent inhibition; also recorded: significant reduction in their ability to adjust to sound stimulus as compared to vehicle treated mice

Q: Which CB2 receptor binding [4] does the source give for C/C1=C\CC/C(C)=C/CC(C)(C)/C=C/C1 [alpha-humulene] here?
A: Its CB2 receptor binding is “inactivity”.

Q: Which results are given for Cc1nc2n(c(=O)c1CCN1CCC(c3noc4cc(F)ccc34)CC1)CCCC2 [risperidone, Risperidone, reference compound]?
A: inhibition of CYP2D6 enzymatic activity [11]: inhibited the activity of CYP2D6 enzyme; inhibition of CYP2D6 enzymatic activity ([11]; listed as Risperidone): inhibited CYP2D6 enzymatic activity; activity in the open field test, male mice ([3]; postnatal day 64, postnatal PCP 5 mg/kg, oral risperidone 0.5 mg/kg twice a week, PND 43-62): reversed the effect of 5 mg/kg PCP on activity in the open field test of male mice at postnatal day 64
